Source: US10849336B2, “Cocoa-based food products” (IP Science Limited, priority 2011, dated 2020)
Where “and” joins values, the source holds several entries; their conditions need not be identical. Identical values can stand only once.

Tests used:
CHD patients = assay: Clinical trial in CHD patients, daily lycopene, control chocolate or L-chocolate; type: in vivo, human
Protocol: Commercially available dark chocolate (Green & Black's Dark Chocolate; 85% cocoa) was melted at 70° C. The melted chocolate was mixed with tomato oleoresin, containing 15% of lycopene (Lyc-O-Mato), in the ratio of 1.57 mg of oleoresin to 1 g of the chocolate. The mixture was blended for 10 minutes and then divided into daily […] 30 g portions and cooled down to the room temperature.
Each […] 30 g chocolate portion contained 47.1 mg of tomato oleoresin or about 7 mg of lycopene.
The melting and mixing procedures were performed as described above using the same commercially available dark chocolate, but instead of tomato oleoresin, sunflower oil (Floral™) was used.
47.1 mg of tomato oleoresin was pre-dissolved in ethanol and mixed with Whey Protein as described in Richelle et al (2002) J Nutr 132 404-408, WO01/091588 and US2002/01072992. Then the mixture was placed into gelatine capsules.
18 male CHD patients, age 47-69, were recruited for this study.
Main inclusion criteria were: • elevated total serum cholesterol above 200 mg/dL and/or triglycerides above 150 mg/dL, • all patients were naive for any lipid-lowering medications, • stable clinical conditions and regimen of medications was t the last 3 months.
Secondary inclusion criteria were: • positive blood markers on inflammatory oxidative damage, IOD, >20-30 μM MDA • positive blood on an antibody inflammatory marker, Px-IgG>0.250-0.300 U/ml
All patients were randomised and divided into three equal groups of 6 patients each. Two groups receiving chocolate were blinded; the group receiving lycopene preparation along was open labelled. The period of the trial was 4 weeks.

cholesterol = conditions: cited from earlier work
[1] = Baseline, group mean (unlabelled last line)
[2] = Week 1, group mean (unlabelled last line)
[3] = Week 2, group mean (unlabelled last line)
[4] = Week 3, group mean (unlabelled last line)

## CC(C)=CCC/C(C)=C/C=C/C(C)=C/C=C/C(C)=C/C=C/C=C(C)/C=C/C=C(C)/C=C/C=C(\C)CCC=C(C)C [Lycopene]
CHD patients; [1]
  ALT: 29.2 U/L
  AST: 37.3 U/L
  GL: 5.4 mmol/L
  HDL: 40.5 mg/dL
  IOD: 95 μM MDA
  LDL: 157 mg/dL
  Px-IgG: 0.762 U/ml
  TC: 222 mg/dL
  TG: 149 mg/dL
CHD patients; Baseline, individual patient
  ALT: 35 U/L and 29 U/L and 26 U/L and 25 U/L and 36 U/L and 24 U/L
  AST: 27 U/L and 49 U/L and 25 U/L and 44 U/L and 45 U/L and 34 U/L
  GL: 4.4 mmol/L and 5.9 mmol/L and 6.1 mmol/L and 6.5 mmol/L and 5.6 mmol/L and 3.8 mmol/L
  HDL: 44 mg/dL and 37 mg/dL and 40 mg/dL and 39 mg/dL and 42 mg/dL and 41 mg/dL
  IOD: 95 μM MDA and 83 μM MDA and 49 μM MDA and 101 μM MDA and 162 μM MDA and 79 μM MDA
  LDL: 161 mg/dL and 186 mg/dL and 147 mg/dL and 153 mg/dL and 159 mg/dL and 135 mg/dL
  Px-IgG: 0.803 U/ml and 0.751 U/ml and 0.743 U/ml and 0.698 U/ml and 0.811 U/ml
  TC: 219 mg/dL and 243 mg/dL and 210 mg/dL and 225 mg/dL and 231 mg/dL and 204 mg/dL
  TG: 126 mg/dL and 165 mg/dL and 157 mg/dL and 161 mg/dL and 150 mg/dL and 134 mg/dL
CHD patients; [2]
  ALT: 31.5 U/L
  AST: 39.7 U/L
  GL: 5.3 mmol/L
  HDL: 40.3 mg/dL
  IOD: 96 μM MDA
  LDL: 157 mg/dL
  Px-IgG: 0.823 U/ml
  TC: 221 mg/dL
  TG: 150 mg/dL
CHD patients; Week 1, individual patient
  ALT: 31 U/L and 33 U/L (2×) and 29 U/L (2×) and 34 U/L
  AST: 47 U/L and 46 U/L and 36 U/L and 31 U/L and 44 U/L and 34 U/L
  GL: 6.4 mmol/L and 5.7 mmol/L and 4.9 mmol/L and 3.6 mmol/L and 5.1 mmol/L and 6.1 mmol/L
  HDL: 39 mg/dL and 42 mg/dL and 40 mg/dL (2×) and 43 mg/dL and 38 mg/dL
  IOD: 99 μM MDA and 158 μM MDA and 85 μM MDA and 94 μM MDA and 81 μM MDA and 57 μM MDA
  LDL: 153 mg/dL and 160 mg/dL (2×) and 134 mg/dL and 185 mg/dL and 149 mg/dL
  Px-IgG: 0.823 U/ml and 0.746 U/ml and 0.809 U/ml and 0.867 U/ml and 0.851 U/ml and 0.839 U/ml
  TC: 224 mg/dL and 231 mg/dL and 205 mg/dL and 217 mg/dL and 241 mg/dL and 209 mg/dL
  TG: 160 mg/dL and 152 mg/dL and 137 mg/dL and 130 mg/dL and 164 mg/dL and 159 mg/dL
CHD patients; [3]
  ALT: 30.8 U/L
  AST: 37.5 U/L
  GL: 5.2 mmol/L
  HDL: 40.3 mg/dL
  IOD: 92 μM MDA
  LDL: 156 mg/dL
  Px-IgG: 0.818 U/ml
  TC: 221 mg/dL
  TG: 150 mg/dL
CHD patients; Week 2, individual patient
  ALT: 29 U/L and 31 U/L (2×) and 28 U/L and 32 U/L and 34 U/L
  AST: 43 U/L and 42 U/L and 31 U/L and 38 U/L and 41 U/L and 30 U/L
  GL: 6.6 mmol/L and 5.2 mmol/L and 5.4 mmol/L and 4.1 mmol/L and 3.9 mmol/L and 6 mmol/L
  HDL: 39 mg/dL (2×) and 41 mg/dL (2×) and 40 mg/dL and 42 mg/dL
  IOD: 95 μM MDA and 139 μM MDA and 84 μM MDA and 91 μM MDA and 75 μM MDA and 68 μM MDA
  LDL: 152 mg/dL and 158 mg/dL and 133 mg/dL and 159 mg/dL and 183 mg/dL and 150 mg/dL
  Px-IgG: 0.812 U/ml and 0.809 U/ml and 0.815 U/ml and 0.844 U/ml and 0.830 U/ml and 0.799 U/ml
  TC: 223 mg/dL and 230 mg/dL and 208 mg/dL (2×) and 216 mg/dL and 239 mg/dL
  TG: 159 mg/dL and 151 mg/dL and 138 mg/dL and 132 mg/dL and 162 mg/dL and 158 mg/dL
CHD patients; [4]
  ALT: 29.3 U/L
  AST: 37.8 U/L
  GL: 5.22 mmol/L
  HDL: 40.2 mg/dL
  IOD: 94 μM MDA
  LDL: 154 mg/dL
  Px-IgG: 0.806 U/ml
  TC: 219 mg/dL
  TG: 149 mg/dL
CHD patients; Week 3, individual patient
  ALT: 32 U/L and 29 U/L and 25 U/L and 31 U/L (2×) and 28 U/L
  AST: 42 U/L (2×) and 39 U/L and 35 U/L and 36 U/L and 33 U/L
  GL: 6.2 mmol/L and 4.8 mmol/L and 5.1 mmol/L and 5 mmol/L and 4.4 mmol/L and 5.8 mmol/L
  HDL: 39 mg/dL and 42 mg/dL and 40 mg/dL and 41 mg/dL (2×) and 38 mg/dL
  IOD: 94 μM MDA and 136 μM MDA and 85 μM MDA and 93 μM MDA and 76 μM MDA and 81 μM MDA
  LDL: 151 mg/dL and 157 mg/dL and 132 mg/dL and 155 mg/dL and 179 mg/dL and 152 mg/dL
  Px-IgG: 0.834 U/ml and 0.781 U/ml and 0.84 U/ml and 0.795 U/ml and 0.809 U/ml and 0.774 U/ml
  TC: 221 mg/dL and 227 mg/dL and 210 mg/dL and 214 mg/dL and 232 mg/dL and 211 mg/dL
  TG: 155 mg/dL and 149 mg/dL and 135 mg/dL and 142 mg/dL and 161 mg/dL and 154 mg/dL
CHD patients; after two weeks of administration, 7 mg lycopene or 30 g control bar
  changes in levels of elevated cholesterol, triglycerides and markers of oxidative damage or inflammation: no changes
cholesterol; 13 clinical studies, daily doses 25 mg of lycopene or above
  cholesterol-lowering effect: 7.55 ± 6.15 mg/dL
cholesterol; daily consumption of 6-10 mg
  effect on cholesterol or other blood lipids: no effect on cholesterol or other blood lipids
